Assay results reported in the NIST ThermoML archive (doi:10.1016/j.tca.2015.06.017).

Assay: xn = mol fraction of the nth substance listed
Details: Liquid, Vibrating tube method

CC(C)(C)Cl [2-chloro-2-methylpropane] + CCCCCCC
mass density [kg/m3]
Details | 303.15 K | 313.15 K | 323.15 K
100 kPa, x2 = 0.0554 | 818.78 | 806.66 | 794.33
100 kPa, x2 = 0.1017 | 809.14 | 797.28 | 785.21
100 kPa, x2 = 0.2004 | 789.72 | 778.36 | 766.79
100 kPa, x2 = 0.3016 | 771.27 | 760.35 | 749.26
100 kPa, x2 = 0.4097 | 753.07 | 742.58 | 731.93
100 kPa, x2 = 0.498 | 739.29 | 729.11 | 718.79
100 kPa, x2 = 0.5983 | 724.71 | 714.88 | 704.9
100 kPa, x2 = 0.7017 | 710.79 | 701.3 | 691.67
100 kPa, x2 = 0.7995 | 698.55 | 689.36 | 680.04
100 kPa, x2 = 0.9032 | 686.4 | 677.52 | 668.52
100 kPa, x2 = 0.9482 | 681.35 | 672.6 | 663.72
2000 kPa, x2 = 0.0554 | 821.47 | 809.52 | 797.48
2000 kPa, x2 = 0.1017 | 811.82 | 800.05 | 788.27
2000 kPa, x2 = 0.2004 | 792.22 | 781 | 769.77
2000 kPa, x2 = 0.3016 | 773.66 | 763.03 | 752.1
2000 kPa, x2 = 0.4097 | 755.51 | 745.07 | 734.59
2000 kPa, x2 = 0.498 | 741.69 | 731.68 | 721.4
2000 kPa, x2 = 0.5983 | 727.08 | 717.4 | 707.53
2000 kPa, x2 = 0.7017 | 713.01 | 703.64 | 694.11
2000 kPa, x2 = 0.7995 | 700.74 | 691.69 | 682.44
2000 kPa, x2 = 0.9032 | 688.51 | 679.76 | 670.78
2000 kPa, x2 = 0.9482 | 683.42 | 674.8 | 665.93
5000 kPa, x2 = 0.0554 | 825.59 | 813.98 | 802.32
5000 kPa, x2 = 0.1017 | 815.8 | 804.42 | 793.03
5000 kPa, x2 = 0.2004 | 796.16 | 785.28 | 774.28
5000 kPa, x2 = 0.3016 | 777.4 | 767.03 | 756.52
5000 kPa, x2 = 0.4097 | 759.02 | 749.04 | 738.91
5000 kPa, x2 = 0.498 | 745.08 | 735.25 | 725.49
5000 kPa, x2 = 0.5983 | 730.47 | 720.98 | 711.44
5000 kPa, x2 = 0.7017 | 716.37 | 707.1 | 697.95
5000 kPa, x2 = 0.7995 | 703.86 | 695.02 | 686.17
5000 kPa, x2 = 0.9032 | 691.56 | 682.92 | 674.4
5000 kPa, x2 = 0.9482 | 686.48 | 677.95 | 669.52
7000 kPa, x2 = 0.0554 | 828.15 | 816.75 | 805.4
7000 kPa, x2 = 0.1017 | 818.38 | 807.19 | 796.06
7000 kPa, x2 = 0.2004 | 798.56 | 787.92 | 777.25
7000 kPa, x2 = 0.3016 | 779.88 | 769.57 | 759.21
7000 kPa, x2 = 0.4097 | 761.39 | 751.4 | 741.54
7000 kPa, x2 = 0.498 | 747.28 | 737.68 | 728.22
7000 kPa, x2 = 0.5983 | 732.58 | 723.34 | 714.07
7000 kPa, x2 = 0.7017 | 718.4 | 709.4 | 700.51
7000 kPa, x2 = 0.7995 | 705.86 | 697.26 | 688.53
7000 kPa, x2 = 0.9032 | 693.5 | 685.15 | 676.71
7000 kPa, x2 = 0.9482 | 688.38 | 680.11 | 671.83
10000 kPa, x2 = 0.0554 | 832 | 820.74 | 809.88
10000 kPa, x2 = 0.1017 | 822.04 | 811.13 | 800.36
10000 kPa, x2 = 0.2004 | 802.32 | 791.72 | 781.49
10000 kPa, x2 = 0.3016 | 783.29 | 773.41 | 763.36
10000 kPa, x2 = 0.4097 | 764.7 | 754.97 | 745.37
10000 kPa, x2 = 0.498 | 750.6 | 741.18 | 731.85
10000 kPa, x2 = 0.5983 | 735.66 | 726.57 | 717.55
10000 kPa, x2 = 0.7017 | 721.43 | 712.75 | 703.96
10000 kPa, x2 = 0.7995 | 708.91 | 700.32 | 691.76
10000 kPa, x2 = 0.9032 | 696.4 | 688.14 | 679.93
10000 kPa, x2 = 0.9482 | 691.28 | 683.1 | 674.96
20000 kPa, x2 = 0.0554 | 843.57 | 833.07 | 823.12
20000 kPa, x2 = 0.1017 | 833.51 | 823.38 | 813.35
20000 kPa, x2 = 0.2004 | 813.29 | 803.53 | 794.06
20000 kPa, x2 = 0.3016 | 793.94 | 784.77 | 775.49
20000 kPa, x2 = 0.4097 | 774.96 | 766.04 | 757.06
20000 kPa, x2 = 0.498 | 760.6 | 751.92 | 743.41
20000 kPa, x2 = 0.5983 | 745.27 | 737.01 | 728.54
20000 kPa, x2 = 0.7017 | 730.77 | 722.7 | 714.57
20000 kPa, x2 = 0.7995 | 717.92 | 709.98 | 702.11
20000 kPa, x2 = 0.9032 | 705.2 | 697.53 | 689.93
20000 kPa, x2 = 0.9482 | 699.94 | 692.28 | 684.86
30000 kPa, x2 = 0.0554 | 853.99 | 844.1 | 834.6
30000 kPa, x2 = 0.1017 | 843.73 | 834.2 | 824.82
30000 kPa, x2 = 0.2004 | 823.05 | 814.01 | 805.07
30000 kPa, x2 = 0.3016 | 803.47 | 794.87 | 786.11
30000 kPa, x2 = 0.4097 | 784.21 | 775.79 | 767.3
30000 kPa, x2 = 0.498 | 769.56 | 761.41 | 753.1
30000 kPa, x2 = 0.5983 | 753.98 | 746.13 | 738.15
30000 kPa, x2 = 0.7017 | 739.18 | 731.52 | 723.78
30000 kPa, x2 = 0.7995 | 726.07 | 718.59 | 711.07
30000 kPa, x2 = 0.9032 | 713.06 | 705.89 | 698.64
30000 kPa, x2 = 0.9482 | 707.83 | 700.51 | 693.47
40000 kPa, x2 = 0.0554 | 863.35 | 854.03 | 844.99
40000 kPa, x2 = 0.1017 | 852.88 | 843.96 | 835.05
40000 kPa, x2 = 0.2004 | 832.1 | 823.46 | 814.92
40000 kPa, x2 = 0.3016 | 812.13 | 804.15 | 795.67
40000 kPa, x2 = 0.4097 | 792.62 | 784.83 | 776.64
40000 kPa, x2 = 0.498 | 777.76 | 770.02 | 762.18
40000 kPa, x2 = 0.5983 | 761.89 | 754.48 | 746.92
40000 kPa, x2 = 0.7017 | 746.9 | 739.67 | 732.28
40000 kPa, x2 = 0.7995 | 733.47 | 726.54 | 719.25
40000 kPa, x2 = 0.9032 | 720.32 | 713.51 | 706.58
40000 kPa, x2 = 0.9482 | 714.92 | 708.05 | 701.31
50000 kPa, x2 = 0.0554 | 871.81 | 862.97 | 854.39
50000 kPa, x2 = 0.1017 | 861.28 | 852.84 | 844.39
50000 kPa, x2 = 0.2004 | 840.18 | 832.15 | 823.81
50000 kPa, x2 = 0.3016 | 820.14 | 812.43 | 804.37
50000 kPa, x2 = 0.4097 | 800.42 | 792.76 | 785.03
50000 kPa, x2 = 0.498 | 785.33 | 777.91 | 770.31
50000 kPa, x2 = 0.5983 | 769.3 | 762.19 | 754.82
50000 kPa, x2 = 0.7017 | 753.99 | 747.09 | 739.94
50000 kPa, x2 = 0.7995 | 740.47 | 733.8 | 726.85
50000 kPa, x2 = 0.9032 | 727.09 | 720.62 | 713.88
50000 kPa, x2 = 0.9482 | 721.65 | 715.12 | 708.52
60000 kPa, x2 = 0.0554 | 879.84 | 871.31 | 863.07
60000 kPa, x2 = 0.1017 | 869.24 | 861.07 | 852.83
60000 kPa, x2 = 0.2004 | 847.92 | 840.18 | 832.16
60000 kPa, x2 = 0.3016 | 827.68 | 820.2 | 812.47
60000 kPa, x2 = 0.4097 | 807.57 | 800.35 | 792.82
60000 kPa, x2 = 0.498 | 792.31 | 785.26 | 778.02
60000 kPa, x2 = 0.5983 | 776.11 | 769.28 | 762.27
60000 kPa, x2 = 0.7017 | 760.58 | 753.92 | 747.09
60000 kPa, x2 = 0.7995 | 746.99 | 740.45 | 733.8
60000 kPa, x2 = 0.9032 | 733.41 | 727.14 | 720.67
60000 kPa, x2 = 0.9482 | 727.85 | 721.6 | 715.25
65000 kPa, x2 = 0.0554 | 883.64 | 875.25 | 867.24
65000 kPa, x2 = 0.1017 | 872.96 | 864.95 | 856.84
65000 kPa, x2 = 0.2004 | 851.56 | 843.84 | 836.1
65000 kPa, x2 = 0.3016 | 831.16 | 823.81 | 816.3
65000 kPa, x2 = 0.4097 | 810.96 | 803.85 | 796.58
65000 kPa, x2 = 0.498 | 795.68 | 788.68 | 781.6
65000 kPa, x2 = 0.5983 | 779.38 | 772.62 | 765.81
65000 kPa, x2 = 0.7017 | 763.77 | 757.22 | 750.52
65000 kPa, x2 = 0.7995 | 749.98 | 743.57 | 737.12
65000 kPa, x2 = 0.9032 | 736.38 | 730.17 | 723.9
65000 kPa, x2 = 0.9482 | 730.82 | 724.57 | 718.48
